Legend:
[1] = test system: NAFLD-modeled golden hamsters; experiment: Simple high-fat diet-induced NAFLD-modeled golden hamster; type: in vivo; details: obeticholic acid 1 mg/kg, Ezetimibe 1 mg/kg, x ± s; for ALP / ALT / AST / HDL-C / LDL-C / TC / TG: plasma
Source text: Obeticholic acid and Ezetimibe each are formulated with 10% Kolliphor HS 15 (BASF, Lot. No. 21466288K0) to a desired concentration.
78 specific pathogen free (SPF) male golden hamsters were provided, each with a body weight (BW) around 70 to 90 g, and commercially available from Beijing Vital River Laboratory Animal Technology Co., Ltd. Animal permit number is SCXK (Jing) 2012-0001.
10 golden hamsters were fed with a base diet as a normal group, while 68 golden hamsters were fed with a high-fat diet formulated with 0.3% cholesterol, 12.5% palm oil and 87.2% base diet upon purchased. All of them had free access to water, and kept in a same light rhythm (day time/night time: 10 h/14 h). After 3 weeks of feed, the golden hamsters were fasted for 14 hours, with free access to water, and then sampled for blood in a volume of 0.8 mL from posterior orbital venous plexus the next day. The blood samples added with sodium heparin for anticoagulation were centrifuged at 5000 r·min^−1 for 10 minutes, and 300 μL of supernatant for each sample was transferred into an assay cup (in volume of microliter grade) of the Sysmex CHEX-180 automatic biochemical analyzer for determination of levels of TC, TG, LDL-C, HDL-C and ALT, with results for screening of the hamsters.
6 out of 10 golden hamsters fed with the base diet were selected as a normal group, while 30 out of 68 golden hamsters fed with the high-fat diet were grouped into 3 experimental groups randomly (i.e. 10 hamsters for each group), respectively named model group, obeticholic acid group (1 mg/kg) and obeticholic acid (1 mg/kg)+Ezetimibe (1 mg/kg) group. From the first administration at PM 4:00 of the day after grouping, the 3 experimental groups were started to be each administered in a dosage of 10 mL·kg^−1, where the model group was administered with 10% Kolliphor in an equal volume. During administration, the normal group was still fed with the base diet, and the 3 experimental groups were fed with the high-fat diet. At 2 weeks of administration, all the golden hamsters were fasted but accessible to water overnight, and anesthetized with ethyl ether on the morning of the next day for collection of blood samples (in a volume of 0.8 mL) from the posterior orbital venous plexus. The blood samples added with sodium heparin for anticoagulation were centrifuged at 5000 r·min^−1 for 10 minutes, and 300 μL of plasma for each sample was transferred into the Sysmex CHEX-180 automatic biochemical analyzer for determination of levels of TC, TG, LDL-C, HDL-C, ALT, AST and ALP. At 4 weeks of administration, plasma of each hamster was collected for determination of levels of TC, TG LDL-C, HDL-C, ALT, AST and ALP. Afterwards, the hamsters were anesthetized with ethyl ether deeply, followed by weighting and laparotomy by an abdominal median incision for observation of size, color and texture of liver. After photographed, the liver was taken out, washed with saline and dried with filter paper, and weighted for calculation of liver index. Subsequently, left lobe of liver was cut out quickly and placed into 10% of neutral buffered formalin for immobilization, followed by preparation of paraffin sections (with HE staining) for observation of change of liver tissue pathology.
The results are represented in x±s, and comparison among groups is performed by t-test.

[2] = test system: NASH-modeled golden hamsters; experiment: NASH-modeled golden hamster (method as Example 4, changed doses); type: in vivo; details: obeticholic acid 5 mg/kg
Description: The experimental method is referred to the Example 4, except for addition of Ezetimibe group (0.3 mg/kg), dosage change to 5 mg/kg obeticholic acid for the obeticholic acid group, as well as dosage change to 5 mg/kg obeticholic acid and 0.3 mg/kg Ezetimibe for the obeticholic acid+Ezetimibe group. Specifically, a normal group (A), a model group (B), an obeticholic acid group (C), an obeticholic acid+Ezetimibe group (D) and an Ezetimibe group (E) are included in this example.
Liver tissue samples from individual golden hamsters after treatment were subjected to paraffin-sectioning, with results shown in FIG. 3.

[3] = patients in an obeticholic acid treatment group; cited from earlier work
[4] = test system: cytochrome p450; details: 14C as a marker; cited from earlier work
[5] = after 4 weeks of administration
[6] = after 2 weeks of administration

With `CC[C@H]1[C@@H](O)[C@@H]2[C@H](CC[C@]3(C)[C@@H]([C@H](C)CCC(=O)O)CC[C@@H]23)[C@@]2(C)CC[C@@H](O)C[C@@H]12` [Obeticholic acid, obeticholic acid] as the compound, how does the “liver index (%)” value [1, 5] read?
Its value is 5.15 ± 0.33%.

What about the ALP [1, 6] of the same compound?
The ALP was 190.20 ± 26.30 U · L^−1.

And the ALT [1, 6]?
The ALT was 120.50 ± 41.78^ U · L^−1.

And the AST [1, 6]?
The AST was 59.20 ± 14.01 U · L^−1.

What about the HDL-C [1, 6] of the same compound?
The HDL-C was 2.70 ± 0.37 mmol/L.

And the LDL-C [1, 6]?
Its LDL-C is 7.07 ± 3.22 mmol/L.

And the TC [1, 6]?
Its TC is 14.32 ± 3.15^ mmol · L^−1.

And the TG [1, 6]?
The TG was 2.20 ± 0.52 mmol/L.

And the ALP [1, 5]?
Its ALP is 196.30 ± 18.91 U · L^−1.

And the ALT [1, 5]?
Its ALT is 165.20 ± 44.90 U · L^−1.

What about the AST [1, 5] of the same compound?
The AST was 80.80 ± 13.13 U · L^−1.

What about the HDL-C [1, 5] of the same compound?
Its HDL-C is 3.51 ± 0.71 mmol/L.

What about the LDL-C [1, 5] of the same compound?
Its LDL-C is 16.04 ± 13.52 mmol/L.

And the TC [1, 5]?
Its TC is 22.89 ± 5.91 mmol/L.

And the TG [1, 5]?
The TG was 2.07 ± 0.97 mmol/L.

What about the “blocking the progression of liver fibrosis (pathological sections of liver tissues)” value [2] of the same compound?
Its value is “no effect”.

And the “infiltration and aggregation of inflammatory cells (pathological sections of liver tissues, FIG. 3)” value ([2]; Ezetimibe 0.3 mg/kg)?
The value was “no effect”.

What about the “level of high density lipoprotein compared to a placebo control” value [3] of the same compound?
The value was “lower”.

What about the “level of low density lipoprotein compared to a placebo control” value [3] of the same compound?
Its value is “higher”.

What about the “level of total cholesterol compared to a placebo control” value [3] of the same compound?
The value was “higher”.

What does the source list for `O=C1[C@H](CC[C@H](O)c2ccc(F)cc2)[C@@H](c2ccc(O)cc2)N1c1ccc(F)cc1` [Ezetimibe]?
metabolism by a primary drug metabolic enzyme (cytochrome p450) [4]: barely metabolized; ALP level ([2]; Ezetimibe 0.3 mg/kg): reduces ALP level slightly; fat content in liver cells (pathological sections of liver tissues, FIG. 3) ([2]; Ezetimibe 0.3 mg/kg): not reducing fat content in liver significantly; infiltration and aggregation of inflammatory cells (pathological sections of liver tissues, FIG. 3) ([2]; Ezetimibe 0.3 mg/kg): ameliorating; level of LDL in plasma ([2]; Ezetimibe 0.3 mg/kg): reduces levels of triglyceride, cholesterol, LDL, liver function enzymes in plasma significantly; level of cholesterol in plasma ([2]; Ezetimibe 0.3 mg/kg): reduces levels of triglyceride, cholesterol, LDL, liver function enzymes in plasma significantly; level of triglyceride in plasma ([2]; Ezetimibe 0.3 mg/kg): reduces levels of triglyceride, cholesterol, LDL, liver function enzymes in plasma significantly; levels of liver function enzymes (alanine aminotransferase and aspartate aminotransferase) in plasma ([2]; Ezetimibe 0.3 mg/kg): reduces levels of triglyceride, cholesterol, LDL, liver function enzymes in plasma significantly

From patent US20190083459A1, “PHARMACEUTICAL COMPOSITION AND USE THEREOF” (WATERSTONE PHARMACEUTICALS(WUHAN) CO., LTD., priority 2016, published 2019)
